# In ChEMBL document CHEMBL1155906, “Structural modifications of N-arylamide oxadiazoles: Identification of N-arylpiperidine oxadiazoles as potent and selective agonists of CB2” (Bioorg Med Chem Lett, 2008):
# Activity calls are given as the source filed them. The rule behind the calls is not given here.
# Tested on: not listed separately
# Experiment: Metabolic stability in human liver microsome assessed as intrinsic clearance
# Format: ADME
# Details: liver microsomes
row,Compound,microsomal CLint [µL/min/mg]
1,CC1(C)CCCc2cc(N3CCC(c4nc(-c5ccc(F)cc5Cl)no4)CC3)cnc21,380
2,c1ccc2ncc(N3CCC(c4nc(C5CCCCC5)no4)CC3)cc2c1,283
3,Fc1ccc(-c2noc([C@H]3C[C@@H]3CNc3cnc4ccccc4c3)n2)c(Cl)c1 (racemic),69
4,O=C(CCc1nc(-c2ccc(F)cc2Cl)no1)Nc1cnc2ccccc2c1,49
5,Fc1ccc(-c2noc(C[C@H]3CCN(c4cnc5ccccc5c4)C3)n2)c(Cl)c1,215
6,Fc1ccc(-c2noc(C[C@@H]3CCN(c4cnc5ccccc5c4)C3)n2)c(Cl)c1,215
7,Clc1cnccc1-c1noc(C2CCN(c3cnc4ccccc4c3)CC2)n1,251
8,Fc1ccc(-c2noc(C3CCN(c4cnc5c(c4)CCCC5)CC3)n2)c(Cl)c1,95
9,Clc1ccc(-c2noc(C3CCN(c4cnc5ccccc5c4)CC3)n2)c(Cl)c1,58
10,CC(C)(CCc1nc(-c2ccc(F)cc2Cl)no1)Nc1cnc2ccccc2c1,429
11,Fc1ccc(-c2noc(CCCNc3cnc4ccccc4c3)n2)c(Cl)c1,179
12,Fc1ccc(-c2noc(C3CCN(c4cnc5c(C(F)(F)F)cccc5c4)CC3)n2)c(Cl)c1,23
13,CC(CCc1nc(-c2ccc(F)cc2Cl)no1)Nc1cnc2ccccc2c1 (racemic),142

# Target: T1, Cannabinoid receptor 2 (Homo sapiens, UniProt P34972)
# T1 sequence (P34972 whole entry): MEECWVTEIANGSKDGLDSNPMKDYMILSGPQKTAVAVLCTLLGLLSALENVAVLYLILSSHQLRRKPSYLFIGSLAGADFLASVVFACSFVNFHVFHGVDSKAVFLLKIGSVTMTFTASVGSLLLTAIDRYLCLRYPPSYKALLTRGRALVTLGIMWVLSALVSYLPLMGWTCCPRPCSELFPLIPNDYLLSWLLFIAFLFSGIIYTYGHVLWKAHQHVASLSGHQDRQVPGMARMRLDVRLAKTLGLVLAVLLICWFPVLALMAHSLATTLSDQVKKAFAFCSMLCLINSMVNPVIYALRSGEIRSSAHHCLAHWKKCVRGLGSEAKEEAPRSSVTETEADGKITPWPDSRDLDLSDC
# Experiment: Agonist activity at human CB2 receptor assessed as inhibition of forskolin-induced increase in intracellular cAMP
# Format: functional, cell-based
# Details: not given
row,Compound,EC50 [nM]
1,Fc1ccc(-c2noc([C@H]3C[C@@H]3CNc3cnc4ccccc4c3)n2)c(Cl)c1 (racemic),> 2000
2,O=C(CCc1nc(-c2ccc(F)cc2Cl)no1)Nc1cnc2ccccc2c1,5
3,Fc1ccc(-c2noc(C[C@@H]3CCN(c4cnc5ccccc5c4)C3)n2)c(Cl)c1,> 2000
4,CC(C)(CCc1nc(-c2ccc(F)cc2Cl)no1)Nc1cnc2ccccc2c1,50

# Target: T2, Cannabinoid receptor 1 (Homo sapiens, UniProt P21554)
# T2 sequence (P21554 whole entry): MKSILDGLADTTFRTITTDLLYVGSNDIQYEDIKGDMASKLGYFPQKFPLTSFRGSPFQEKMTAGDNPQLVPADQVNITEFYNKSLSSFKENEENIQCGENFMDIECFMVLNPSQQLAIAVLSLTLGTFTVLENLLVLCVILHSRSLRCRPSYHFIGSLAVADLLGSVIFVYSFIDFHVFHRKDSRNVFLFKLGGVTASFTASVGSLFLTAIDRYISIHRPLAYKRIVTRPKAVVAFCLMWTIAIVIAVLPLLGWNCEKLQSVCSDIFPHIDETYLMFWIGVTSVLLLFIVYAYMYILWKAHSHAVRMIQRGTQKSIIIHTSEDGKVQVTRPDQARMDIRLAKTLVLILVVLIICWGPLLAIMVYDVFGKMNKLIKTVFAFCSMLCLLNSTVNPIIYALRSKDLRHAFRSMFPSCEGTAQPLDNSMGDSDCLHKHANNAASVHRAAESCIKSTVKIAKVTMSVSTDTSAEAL
# Experiment: Agonist activity at human CB1 receptor expressed in insect Sf9 cells assessed as effect on Eu-GTP binding
# Details: not given
row,Compound,EC50 [nM]
1,CC1(C)CCCc2cc(N3CCC(c4nc(-c5ccc(F)cc5Cl)no4)CC3)cnc21,722
2,c1ccc2ncc(N3CCC(c4nc(C5CCCCC5)no4)CC3)cc2c1,600
3,O=C(CCc1nc(-c2ccc(F)cc2Cl)no1)Nc1cnc2ccccc2c1,403
4,Fc1ccc(-c2noc(C[C@H]3CCN(c4cnc5ccccc5c4)C3)n2)c(Cl)c1,1690
5,Fc1ccc(-c2noc(C[C@@H]3CCN(c4cnc5ccccc5c4)C3)n2)c(Cl)c1,1270
6,Clc1cnccc1-c1noc(C2CCN(c3cnc4ccccc4c3)CC2)n1,96
7,Fc1ccc(-c2noc(C3CCN(c4cnc5c(c4)CCCC5)CC3)n2)c(Cl)c1,910
8,Clc1ccc(-c2noc(C3CCN(c4cnc5ccccc5c4)CC3)n2)c(Cl)c1,951
9,CC(C)(CCc1nc(-c2ccc(F)cc2Cl)no1)Nc1cnc2ccccc2c1,1300
10,Fc1ccc(-c2noc(CCCNc3cnc4ccccc4c3)n2)c(Cl)c1,472
11,Fc1ccc(-c2noc(C3CCN(c4cnc5c(C(F)(F)F)cccc5c4)CC3)n2)c(Cl)c1,15
12,CC(CCc1nc(-c2ccc(F)cc2Cl)no1)Nc1cnc2ccccc2c1 (racemic),1560

# Tested on: not listed separately
# Experiment: Clearance in iv dosed rat
# Format: ADME, organism-based
# Details: in vivo
row,Compound,clearance [mL/min/kg]
1,O=C(CCc1nc(-c2ccc(F)cc2Cl)no1)Nc1cnc2ccccc2c1,95

# Target: T2, Cannabinoid receptor 1
# Experiment: Agonist activity at human CB1 receptor assessed as inhibition of forskolin-induced increase in intracellular cAMP relative to CP-55940
# Format: functional, cell-based
# Details: not given
row,Compound,Emax [%]
1,Fc1ccc(-c2noc([C@H]3C[C@@H]3CNc3cnc4ccccc4c3)n2)c(Cl)c1 (racemic),1
2,O=C(CCc1nc(-c2ccc(F)cc2Cl)no1)Nc1cnc2ccccc2c1,49
3,Fc1ccc(-c2noc(C[C@@H]3CCN(c4cnc5ccccc5c4)C3)n2)c(Cl)c1,3
4,CC(C)(CCc1nc(-c2ccc(F)cc2Cl)no1)Nc1cnc2ccccc2c1,46

# Target: T1, Cannabinoid receptor 2
# Experiment: Agonist activity at human CB2 receptor assessed as inhibition of forskolin-induced increase in intracellular cAMP relative to CP-55940
# Format: functional, cell-based
# Details: not given
row,Compound,Emax [%]
1,Fc1ccc(-c2noc([C@H]3C[C@@H]3CNc3cnc4ccccc4c3)n2)c(Cl)c1 (racemic),0
2,O=C(CCc1nc(-c2ccc(F)cc2Cl)no1)Nc1cnc2ccccc2c1,98
3,Fc1ccc(-c2noc(C[C@@H]3CCN(c4cnc5ccccc5c4)C3)n2)c(Cl)c1,23
4,CC(C)(CCc1nc(-c2ccc(F)cc2Cl)no1)Nc1cnc2ccccc2c1,93

# Target: T1, Cannabinoid receptor 2
# Experiment: Agonist activity at human CB2 receptor expressed in insect Sf9 cells assessed as effect on Eu-GTP binding
# Details: not given
row,Compound,EC50 [nM]
1,CC1(C)CCCc2cc(N3CCC(c4nc(-c5ccc(F)cc5Cl)no4)CC3)cnc21,32
2,c1ccc2ncc(N3CCC(c4nc(C5CCCCC5)no4)CC3)cc2c1,26
3,Fc1ccc(-c2noc([C@H]3C[C@@H]3CNc3cnc4ccccc4c3)n2)c(Cl)c1 (racemic),99
4,O=C(CCc1nc(-c2ccc(F)cc2Cl)no1)Nc1cnc2ccccc2c1,2
5,Fc1ccc(-c2noc(C[C@H]3CCN(c4cnc5ccccc5c4)C3)n2)c(Cl)c1,140
6,Fc1ccc(-c2noc(C[C@@H]3CCN(c4cnc5ccccc5c4)C3)n2)c(Cl)c1,86
7,Clc1cnccc1-c1noc(C2CCN(c3cnc4ccccc4c3)CC2)n1,24
8,Fc1ccc(-c2noc(C3CCN(c4cnc5c(c4)CCCC5)CC3)n2)c(Cl)c1,19
9,Clc1ccc(-c2noc(C3CCN(c4cnc5ccccc5c4)CC3)n2)c(Cl)c1,80
10,CC(C)(CCc1nc(-c2ccc(F)cc2Cl)no1)Nc1cnc2ccccc2c1,53
11,Fc1ccc(-c2noc(CCCNc3cnc4ccccc4c3)n2)c(Cl)c1,11
12,Fc1ccc(-c2noc(C3CCN(c4cnc5c(C(F)(F)F)cccc5c4)CC3)n2)c(Cl)c1,16
13,CC(CCc1nc(-c2ccc(F)cc2Cl)no1)Nc1cnc2ccccc2c1 (racemic),15

# Tested on: not listed separately
# Experiment: Metabolic stability in rat liver microsome assessed as intrinsic clearance
# Format: ADME
# Details: liver microsomes
row,Compound,microsomal CLint [µL/min/mg]
1,CC1(C)CCCc2cc(N3CCC(c4nc(-c5ccc(F)cc5Cl)no4)CC3)cnc21,> 399
2,c1ccc2ncc(N3CCC(c4nc(C5CCCCC5)no4)CC3)cc2c1,185
3,Fc1ccc(-c2noc([C@H]3C[C@@H]3CNc3cnc4ccccc4c3)n2)c(Cl)c1 (racemic),193
4,O=C(CCc1nc(-c2ccc(F)cc2Cl)no1)Nc1cnc2ccccc2c1,126
5,Fc1ccc(-c2noc(C[C@H]3CCN(c4cnc5ccccc5c4)C3)n2)c(Cl)c1,579
6,Fc1ccc(-c2noc(C[C@@H]3CCN(c4cnc5ccccc5c4)C3)n2)c(Cl)c1,426
7,Clc1cnccc1-c1noc(C2CCN(c3cnc4ccccc4c3)CC2)n1,187
8,Fc1ccc(-c2noc(C3CCN(c4cnc5c(c4)CCCC5)CC3)n2)c(Cl)c1,130
9,Clc1ccc(-c2noc(C3CCN(c4cnc5ccccc5c4)CC3)n2)c(Cl)c1,43
10,CC(C)(CCc1nc(-c2ccc(F)cc2Cl)no1)Nc1cnc2ccccc2c1,775
11,Fc1ccc(-c2noc(CCCNc3cnc4ccccc4c3)n2)c(Cl)c1,614
12,Fc1ccc(-c2noc(C3CCN(c4cnc5c(C(F)(F)F)cccc5c4)CC3)n2)c(Cl)c1,54
13,CC(CCc1nc(-c2ccc(F)cc2Cl)no1)Nc1cnc2ccccc2c1 (racemic),> 399

# Target: T1, Cannabinoid receptor 2
# Experiment: Agonist activity at human CB2 receptor expressed in insect Sf9 cells assessed as effect on Eu-GTP binding relative to CP-55940
# Details: not given
row,Compound,Emax [%]
1,CC1(C)CCCc2cc(N3CCC(c4nc(-c5ccc(F)cc5Cl)no4)CC3)cnc21,108
2,c1ccc2ncc(N3CCC(c4nc(C5CCCCC5)no4)CC3)cc2c1,113
3,Fc1ccc(-c2noc([C@H]3C[C@@H]3CNc3cnc4ccccc4c3)n2)c(Cl)c1 (racemic),110
4,O=C(CCc1nc(-c2ccc(F)cc2Cl)no1)Nc1cnc2ccccc2c1,115
5,Fc1ccc(-c2noc(C[C@H]3CCN(c4cnc5ccccc5c4)C3)n2)c(Cl)c1,109
6,Fc1ccc(-c2noc(C[C@@H]3CCN(c4cnc5ccccc5c4)C3)n2)c(Cl)c1,116
7,Clc1cnccc1-c1noc(C2CCN(c3cnc4ccccc4c3)CC2)n1,103
8,Fc1ccc(-c2noc(C3CCN(c4cnc5c(c4)CCCC5)CC3)n2)c(Cl)c1,113
9,Clc1ccc(-c2noc(C3CCN(c4cnc5ccccc5c4)CC3)n2)c(Cl)c1,99
10,CC(C)(CCc1nc(-c2ccc(F)cc2Cl)no1)Nc1cnc2ccccc2c1,52
11,Fc1ccc(-c2noc(CCCNc3cnc4ccccc4c3)n2)c(Cl)c1,104
12,Fc1ccc(-c2noc(C3CCN(c4cnc5c(C(F)(F)F)cccc5c4)CC3)n2)c(Cl)c1,106
13,CC(CCc1nc(-c2ccc(F)cc2Cl)no1)Nc1cnc2ccccc2c1 (racemic),112

# Target: T2, Cannabinoid receptor 1
# Experiment: Agonist activity at human CB1 receptor assessed as inhibition of forskolin-induced increase in intracellular cAMP
# Format: functional, cell-based
# Details: not given
row,Compound,EC50 [nM]
1,Fc1ccc(-c2noc([C@H]3C[C@@H]3CNc3cnc4ccccc4c3)n2)c(Cl)c1 (racemic),> 2000
2,O=C(CCc1nc(-c2ccc(F)cc2Cl)no1)Nc1cnc2ccccc2c1,559
3,Fc1ccc(-c2noc(C[C@@H]3CCN(c4cnc5ccccc5c4)C3)n2)c(Cl)c1,> 2000
4,CC(C)(CCc1nc(-c2ccc(F)cc2Cl)no1)Nc1cnc2ccccc2c1,> 2000

# Species: Homo sapiens
# Experiment: Selectivity for human CB2 receptor over human CB1 receptor by on Eu-GTP binding assay
# Details: not given
row,Compound,Selectivity
1,O=C(CCc1nc(-c2ccc(F)cc2Cl)no1)Nc1cnc2ccccc2c1,> 200
2,CC(C)(CCc1nc(-c2ccc(F)cc2Cl)no1)Nc1cnc2ccccc2c1,> 200
3,Fc1ccc(-c2noc(CCCNc3cnc4ccccc4c3)n2)c(Cl)c1,> 200
4,CC(CCc1nc(-c2ccc(F)cc2Cl)no1)Nc1cnc2ccccc2c1 (racemic),> 200

# Target: T2, Cannabinoid receptor 1
# Experiment: Agonist activity at human CB1 receptor expressed in insect Sf9 cells assessed as effect on Eu-GTP binding relative to CP-55940
# Details: not given
row,Compound,Emax [%]
1,CC1(C)CCCc2cc(N3CCC(c4nc(-c5ccc(F)cc5Cl)no4)CC3)cnc21,93
2,c1ccc2ncc(N3CCC(c4nc(C5CCCCC5)no4)CC3)cc2c1,105
3,Fc1ccc(-c2noc([C@H]3C[C@@H]3CNc3cnc4ccccc4c3)n2)c(Cl)c1 (racemic),8
4,O=C(CCc1nc(-c2ccc(F)cc2Cl)no1)Nc1cnc2ccccc2c1,51
5,Fc1ccc(-c2noc(C[C@H]3CCN(c4cnc5ccccc5c4)C3)n2)c(Cl)c1,24
6,Fc1ccc(-c2noc(C[C@@H]3CCN(c4cnc5ccccc5c4)C3)n2)c(Cl)c1,46
7,Clc1cnccc1-c1noc(C2CCN(c3cnc4ccccc4c3)CC2)n1,23
8,Fc1ccc(-c2noc(C3CCN(c4cnc5c(c4)CCCC5)CC3)n2)c(Cl)c1,60
9,Clc1ccc(-c2noc(C3CCN(c4cnc5ccccc5c4)CC3)n2)c(Cl)c1,27
10,CC(C)(CCc1nc(-c2ccc(F)cc2Cl)no1)Nc1cnc2ccccc2c1,70
11,Fc1ccc(-c2noc(CCCNc3cnc4ccccc4c3)n2)c(Cl)c1,103
12,Fc1ccc(-c2noc(C3CCN(c4cnc5c(C(F)(F)F)cccc5c4)CC3)n2)c(Cl)c1,34
13,CC(CCc1nc(-c2ccc(F)cc2Cl)no1)Nc1cnc2ccccc2c1 (racemic),69

# Target: T2, Cannabinoid receptor 1
# Experiment: Agonist activity at human CB1 receptor expressed in insect Sf9 cells assessed as effect on Eu-GTP binding at 10 uM
# Details: not given
row,Compound,Activity
1,Fc1ccc(-c2noc([C@H]3C[C@@H]3CNc3cnc4ccccc4c3)n2)c(Cl)c1 (racemic),inactive
